Results reported in patent publication US10959984B2, “Methods for treating cancer with RORγ inhibitors” (THE REGENTS OF THE UNIVERSITY OF CALIFORNIA, priority 2015, dated 2021).

Test system: CRPC-VCaP xenografts
Experiment: Castration-resistant VCaP (CRPC-VCaP) xenograft tumor growth
Type: in vivo
Settings: castrated mice, SR2211 alone, 5 mg/kg i.p.
Method: Four-week-old male SCID C.B17 mice (for C4-2B and VCaP) or BALB/c nu/nu athymic mice (for 22Rv11 and PC-3) were purchased from Harlan Inc. For establishing tumors, 2×10^6 cells were suspended in total of 100 μL PBS/Matrigel (1:1) and implanted subcutaneously into the dorsal flank on both sides of the mice. Animal group size of six or more was estimated to have a high statistic power, based on power calculation (http://www.biomath.info/power/) and previous studies involving the same xenograft models^34,68. When the tumor volume was approximately 80 mm^3, the mice were randomized and then treated intraperitoneally (i.p.) with 100 μl of either vehicle or RORγ antagonists SR2211, XY011/8k (in a formulation of 15% Cremophor EL, Calbiochem, 82.5% PBS, and 2.5% DMSO) for five times per week. Tumor growth was monitored by calipers with volume calculated using the equation: (π/6 (length×width2)). Body weight during the course of the study was also monitored. At the end of the studies mice were killed and tumors were dissected and weighed. Additionally, prostate, seminal vesicle, testis, kidney, heart, lung, liver, epididymal fat pad and spleen were harvested and weighed. To assess the effect of combining RORγ antagonists and ENZ on the growth of castrated-resistant VCaP xenografts (CRPC-VCaP), first, SCID C.B17 mice were injected with VCaP cells as above to establish the tumors. […]

`OC(c1ccc(-c2ccc(CN3CCN(Cc4ccncc4)CC3)cc2)c(F)c1)(C(F)(F)F)C(F)(F)F` [SR2211, 2-Fluoro-4′-[[4-(4-pyridinylmethyl)-1-piperazinyl]methyl]-a,a-bis (trifluoromethyl)-[1,1′-biphenyl]-4-methanol] was tested, and the CRPC tumor growth was “very potent in inhibition of the CRPC tumor growth”.
